What was measured:
[1] = test system: mice; experiment: Intraocular pressure (IOP) in mice by rebound tonometry (Tonolab); type: in vivo
Method: IOP was measured in mice by rebound tonometry, using a Tonolab (Icare Finland Oy, Helsinki, Finland). This instrument uses a light plastic-tipped probe to briefly make contact with the cornea; after the probe encounters the eye the instrument measures the speed at which the probe rebounds in order to calculate IOP.
(§1) To obtain reproducible IOP measurements, mice were anesthetized with isoflurane (3% induction). The anesthetized mouse was then placed on a platform in a prone position, where anesthesia was maintained with 2% isoflurane. Baseline fop measurements are taken in both eyes. A ‘measurement’ included the average value of six readings. One eye was then treated with drug (dissolved in Tocrisolve (Tocris Biosciences), a soya-based solvent, 5 μL final volume, applied topically) while the other eye was treated with vehicle. The animal was then allowed to recover. After an hour the animal was again anesthetized as above. IOP was then measured in the drug-treated and vehicle-treated contralateral eye.
IOP measurements following drug administration were analyzed by paired t-tests comparing drug-treated eyes to contralateral vehicle-treated eyes. Where animals were injected with drug, ocular pressures of animals were compared with those of vehicle-injected animals and compared using an unpaired t-test.

[2] = Observation of signs of irritation after 7 days of daily topical treatment; type: in vivo, mice; conditions: after the 7 days of daily treatment, SR141716 1 mM topical
Method: as §1
The outcome of repeated daily treatment with SR1 was tested separately. […] The IOP was also lower in the vehicle treated eye but this difference was not statistically significant.

[3] = test system: mice; experiment: Intraocular pressure (IOP) in mice by rebound tonometry (Tonolab); type: in vivo; remark: listed apart in the source

SMILES	IOP (mm Hg±SEM) 1 hour after intraperitoneal injection ([1]; PSNCBAM1 4 mg/kg IP, 1 hour, n=16, baseline IOP 19.6±0.4, p<0.005, FIG. 3B) [mm Hg]	IOP (mm Hg±SEM) in drug-treated eye after topical treatment ([1]; PSNCBAM1 5 mM topical, WT mice, n=8, not significant vs vehicle-treated eye 17.4±0.7, FIG. 3A) [mm Hg]	Effect of intraperitoneal injection on ocular pressure ([1]; intraperitoneal injection, FIG. 3B)	Effect of topical treatment on ocular pressure relative to the contralateral eye ([1]; topical, WT mice, FIG. 3A)	Δ IOP±SEM, effect in drug-treated eye after seven days of daily treatment ([1]; SR141716 1 mM topical, 7th day of daily treatment, n=8, p<0.005, FIG. 4C) [mm Hg]	Δ IOP±SEM, effect at 1 day in drug-treated eye ([1]; SR141716 1 mM topical, day 1 of daily treatment, n=8, FIG. 4C) [mm Hg]	Effect on intraocular pressure at midday, standard light cycle ([1]; SR141716 1 mM, midday, mice in standard light cycle, FIG. 1B)	Effect on intraocular pressure at midnight, reverse light cycle ([1]; SR141716 1 mM, midnight, mice in reverse light cycle)	Effect of daily treatments on ocular pressure ([1]; daily treatments over 7 days, FIG. 2C)	Signs of irritation [2]	Δ IOP±SEM, drug-treated eye before 7th treatment (24 hours after 6th daily treatment) ([3]; SR141716 1 mM topical daily, 7 days, drug-treated eye, n=8, p<0.05, FIG. 4B) [mm Hg]	Δ IOP±SEM, effect at 24 hrs after a single treatment ([3]; SR141716 1 mM topical, single treatment, 24 hrs, n=16, FIG. 4A) [mm Hg]	Δ IOP±SEM, effect at 48 hrs after a single treatment ([3]; SR141716 1 mM topical, single treatment, 48 hrs, n=16, p<0.005, FIG. 4A)
O=C(Nc1ccc(Cl)cc1)Nc1cccc(-c2cccc(N3CCCC3)n2)c1 [PSNCBAM1, 1-(4-chlorophenyl)-3-(3-(6-(pyrrolidin-1-yl)pyridin-2-yl)phenyl)urea]	17.3±0.5	18.0±0.6	lowered ocular pressure	did not lower ocular pressure									
Cc1c(C(=O)NN2CCCCC2)nn(-c2ccc(Cl)cc2Cl)c1-c1ccc(Cl)cc1 [SR141716, 5-(4-Chlorophenyl)-1-(2,4-dichloro-phenyl)-4-methyl-N-(piperidin-1-yl)-1H-pyrazole-3-carboxamide]					−4.6±0.9	−2.8±0.6	raised intraocular pressure	reduced intraocular pressure	sustained lower ocular pressure	No signs of irritation were observed	−2.9±1.0	−0.3±0.3	+2.0±0.6 mm Hg
